{
  "source": "patent US7632946B2",
  "about": "“Naphthyridine-based antibacterial compositions” (Abbott Laboratories, priority 2004, dated 2009)",
  "system": "bacterial protein synthesis (S30 extract from quinolone-succeptable Streptococcus pneumoniae ATCC 46919)",
  "experiment": "Cell-free translation assay, firefly luciferase reporter, S30 Streptococcus pneumoniae extract",
  "format": "biochemical",
  "details": "luciferase mRNA, read-out: IC50, concentration causing 50% inhibition of bacterial protein synthesis",
  "experimental": "Bacterial protein synthesis inhibitory activity of representative compounds of this invention having formula (I) and the commercially-available antibacterials in TABLE 2 was determined by translation assays using the firefly luciferase reporter system described by Murray et al., (2001), “Staphylococcus aureus Cell Extract Transcription-Translation Assay: Firefly Luciferase Reporter System for Evaluating Protein Translation Inhibitors,” Antimicrob. Agents Chemother. 45(6): 1900-1904, but replacing the Staphylococcus aureus S30 extract described therein with S30 Streptococcus pneumoniae extract from quinolone-succeptable Streptococcus pneumoniae ATCC 46919, and replacing plasmid coding for the luciferase gene with mRNA (encoding produced by in vitro transcription from the plasmid pAS10rbs3) which encoded the luciferase gene with an upstream Streptococcus pneumoniae promoter and Shine-Dalgarno site.",
  "data": [
    {"molecule": "CC(=O)NC[C@H]1CN(c2ccc(N3CCOCC3)c(F)c2)C(=O)O1", "note": "[Linezolid]", "values": [
      {"measurement": "IC50", "result": "~3000", "unit": "nM"}
    ]}
  ]
}
